Where “and” joins values, the source holds several entries; their conditions need not be identical. Equal entries are not always repeated.
Key:
[1] = test system: NL43 wild type virus; assay type: cell-based, HIV; conditions: read-out: EC50 (P4) (WT)
[2] = test system: P4 CCR5-luc cells

Structure (SMILES)	EC50 [1]	Toxicity (Luciferase, 6d) [2]
CCCCCCOC(=O)C(C)NP(=O)(OCC1OCC(n2cc(C)c(=O)[nH]c2=O)O1)Oc1ccccc1 (mixture of isomers) [Example 18]	740 nM and 410 nM	–
CCCCCOC(=O)C(C)NP(=O)(OCC1OCC(n2cc(C)c(=O)[nH]c2=O)O1)Oc1ccccc1 (mixture of isomers) [Example 17]	360 nM	>100
Cc1cn(C2COC(COP(=O)(NC(C)C(=O)OC3CCCCC3)Oc3ccccc3)O2)c(=O)[nH]c1=O (mixture of isomers) [Example 72]	2120 nM	>100
Cc1cn(C2COC(COP(=O)(NC(C)C(=O)OCc3ccc(F)cc3)Oc3ccccc3)O2)c(=O)[nH]c1=O (mixture of isomers) [Example 19]	–	>100
Cc1cn(C2COC(COP(=O)(NC(C)C(=O)OCc3ccccc3)Oc3ccc(F)cc3)O2)c(=O)[nH]c1=O (mixture of isomers) [Example 67]	1110 nM	>100
COC(=O)C(CC(C)C)NP(=O)(OCC1OCC(n2cc(C)c(=O)[nH]c2=O)O1)Oc1ccccc1 (mixture of isomers) [Example 52]	960 nM	>100
CCOC(=O)C(C)NP(=O)(OCC1OCC(n2cc(C)c(=O)[nH]c2=O)O1)Oc1ccc(Cl)cc1 (mixture of isomers) [Example 20]	270 nM	>100
Cc1cn(C2COC(COP(=O)(NC(C)C(=O)OCc3ccccc3)Oc3ccccc3Cl)O2)c(=O)[nH]c1=O (mixture of isomers) [Example 25]	260 nM	>100
Cc1cn(C2COC(COP(=O)(NC(C)C(=O)OCc3ccccc3)Oc3ccccc3)O2)c(=O)[nH]c1=O (mixture of isomers) [Example 119]	1700 nM	>100
Cc1cn(C2COC(COP(=O)(NC(CC(C)C)C(=O)OCC3CC3)Oc3ccccc3)O2)c(=O)[nH]c1=O (mixture of isomers) [Example 116]	570 nM	>100
Cc1cn(C2COC(COP(=O)(NC(C)C(=O)OC3CCC3)Oc3ccc(F)cc3)O2)c(=O)[nH]c1=O (mixture of isomers) [Example 86]	500 nM	>100
CCCCOC(=O)C(C)NP(=O)(OCC1OCC(n2cc(C)c(=O)[nH]c2=O)O1)Oc1ccc(Br)cc1 (mixture of isomers) [Example 28]	1340 nM	>100
Cc1cn(C2COC(COP(=O)(NC(C)C(=O)OC3CCC3)Oc3ccccc3)O2)c(=O)[nH]c1=O (mixture of isomers) [Example 95]	450 nM	>100
Cc1cn(C2COC(COP(=O)(NC(C)C(=O)OCC3CCC3)Oc3ccccc3)O2)c(=O)[nH]c1=O (mixture of isomers) [Example 109]	710 nM	>100
Cc1cn(C2COC(COP(=O)(NC(C)C(=O)OC3CCCC3)Oc3ccccc3)O2)c(=O)[nH]c1=O (mixture of isomers) [Example 73]	1030 nM	>100
Cc1cn(C2COC(COP(=O)(NC(C)C(=O)OCC3CC3)Oc3ccccc3)O2)c(=O)[nH]c1=O (mixture of isomers) [Example 96]	330 nM	>100
